Experimental data: patent publication US20220281860A1, “COMPOUNDS AND METHODS OF TREATING RNA-MEDIATED DISEASES” (Arrakis Therapeutics, Inc., priority 2016, published 2022)

Test system: RNA3WJ_0.0.0_5IB_3FAM
Assay: Ligand observed NMR binding assay (WaterLOGSY, STD)
Details: 10 μM RNA3WJ_0.0.0_5IB_3FAM +/− 200 compound
Experimental: Purpose: Test direct binding of compounds for RNA three way junction (3WJ). This ligand observed NMR assay is used to test direct binding of compounds to an RNA target, for example a 38 nt synthetic RNA 3WJ and others as described below. Ligand observed assay was used for hit validation studies of single compounds. Established experiments were eventually used to perform group epitope mapping, described below.
Sample buffer: 10 mM Cacodylate, pH 7.1; 0.68 g [MW: 137.99 g/mol]; fill up to 500 ml with Millipore H2O.
Compound Stocks: Tool compounds provided as dry powder were prepared as 50 mM stock solution in 100% d6-DMSO. […]
Proton 900 pulse is determined and water resonance frequency is adjusted to ensure maximal water suppression. The determined values are transferred to the NMR experiments that will be recorded for the respective sample. […]
Python scripts are used to process all recorded spectra in the assay setup, screening and deconvolution process.
Spectra were analyzed for direct binding signals of the compounds. […]
ARK0000013 was also tested in the NMR binding assay. Test Sample: 10 μM RNA3WJ_0.0.0_5IB_3FAM+/−200 Ark000013. ^1H 1D Watergate & WaterLOGSY spectra recorded of Ark000013 were used as a reference (Note: aromatic signals observed between 7.4-7.9 ppm and due to symmetry of the center triptycene scaffold all 9 protons are magnetically equivalent).

CN(CCCN)CCCNC(=O)c1ccc2c(c1)C1c3cc(C(=O)NCCCN(C)CCCN)ccc3C2c2ccc(C(=O)NCCCN(C)CCCN)cc21 [Ark0000013, N^2,N^7,N^15-tris(3-((3-aminopropyl)(methyl)amino)propyl)-9,10-dihydro-9,10-[1,2]benzenoanthracene-2,7,15-tricarboxamide]
STD signals: small signals that were sufficient to qualitatively confirm binding
